{"source": "paper PMC8588131", "about": "“Synthesis, In Silico Studies, and Evaluation of Syn and Anti Isomers of N-Substituted Indole-3-carbaldehyde Oxime Derivatives as Urease Inhibitors against Helicobacter pylori” (Molecules, 2021)", "key": {"[1]": {"tested_on": "Macrotyloma uniflorum urease", "assay": "in vitro urease inhibitory assay (modified Berthelot reaction, indophenol blue, absorbance at 630 nm)", "assay_type": "biochemical, Macrotyloma uniflorum (Horse gram)", "details": "for Maximum Percentage of Inhibition: maximum over tested range 5.00-35.00 μg/mL; for IC50: urease extracted from Macrotyloma uniflorum, thiourea as standard inhibitor, 37 °C, pH 7.2", "experimental": "All synthesized oxime compounds (2, 6, 7, 8, and 9) were evaluated for the in vitro urease inhibitory activity using a colorimetric method. This method involves the formation of indophenol blue in a basic medium where the modified Berthelot reaction is used. The urease enzyme required for the assay was extracted from Macrotyloma uniflorum (Horse gram) with the activity of 0.1013 U, and thiourea was used as the standard inhibitor [34]. The amount of ammonia produced within a given period of time was quantified using a standard calibration method.\nModified Berthelot method was used for the determination of the amount of produced ammonia, and thereby for the quantification of the urease inhibitory activities of the synthesized oxime derivatives (compounds 2, 6, 7, 8, and 9) by measuring their absorbance at 630 nm. All the test compounds and thiourea were prepared by dissolving 2 mg of each compound in 20 mL of 1.25% DMF - buffer solution (pH = 7.2, Na2HPO4 = 0.067 mol dm^−3, KH2PO4 = 0.033 mol dm^−3). DMF doesn’t show any inhibitory effect on urease activity. Initially, a 96 well plate filled with 10 μL of urease enzyme (0.01 U) and 10–70 μL of the test compound was placed in the plate reader and incubated at 37 °C for 15 min. (Concentration of each sample was changed by varying the volume of test compounds from 10 to 70 μL.) Then, to each well, 10 μL of the buffer, 10 μL of EDTA (0.025 mol dm^−3), and 10 μL of urea (0.64 mol dm^−3) were added. After that, 80–20 μL of distilled water was added accordingly to adjust the total volume to 130 μL and incubated in plate reader for another 20 min at 37 °C. Then 35 μL of each coloring agents ((coloring agent A—1% (w/v) phenol, 0.005% (w/v) sodium nitroprusside and coloring agent B—0.5% (w/v) NaOH, 0.05% (v/v) NaOCl)) were introduced to each well, and the plate was incubated in plate reader for another 50 min at 37 °C for the development of indophenol blue color. At the end of the 50 min, the absorbance of each sample was measured at the absorbance wavelength of 630 nm. A control test was conducted to quantify the total hydrolysis of urea in the presence of urease (C). Negative control was carried out to quantify the spontaneous hydrolysis of urea in the absence of the urease enzyme (N). For each sample (T1–7), a negative control test (N1–7) was performed in the absence of the urease enzyme. All experiments were performed thrice. The percentage inhibition of the urease enzyme was calculated using Equation (1). (1) percentage inhibition=[[AC−AN]−[AT1−AN1]/[AC−AN]]×100 where • AC = Absorbance of the control sample (C) • AN = Absorbance of the negative control sample (N) • AT1−7 = Absorbance of the test sample (T1 to T7) • AN1−7 = Absorbance of the negative control of the test sample (N1 to N7)"}}}
{"smiles": "O/N=C\\c1c[nH]c2ccccc12", "note": "[Compound 2, (Z)-N-hydroxy-1-(1H-indole-3-yl)methanimine]", "values": [{"measurement": "Percentage inhibition (± SEM)", "setting": "[1]; at 5.00 μg/mL", "result": "17.46 ± 0.71", "unit": "%"}, {"measurement": "Percentage inhibition (± SEM)", "setting": "[1]; at 10.00 μg/mL", "result": "24.56 ± 0.53", "unit": "%"}, {"measurement": "Percentage inhibition (± SEM)", "setting": "[1]; at 15.00 μg/mL", "result": "29.28 ± 0.52", "unit": "%"}, {"measurement": "Percentage inhibition (± SEM)", "setting": "[1]; at 20.00 μg/mL", "result": "39.40 ± 0.65", "unit": "%"}, {"measurement": "Percentage inhibition (± SEM)", "setting": "[1]; at 25.00 μg/mL", "result": "57.27 ± 0.63", "unit": "%"}, {"measurement": "Percentage inhibition (± SEM)", "setting": "[1]; at 30.00 μg/mL", "result": "64.87 ± 0.93", "unit": "%"}, {"measurement": "Maximum Percentage of Inhibition", "setting": "[1]", "result": 67.81, "unit": "%"}, {"measurement": "IC50", "setting": "[1]", "result": "141 ± 7.5", "unit": "µM"}]}
{"smiles": "Cn1cc(/C=N\\O)c2ccccc21", "note": "[Compound 6, (Z)-N-hydroxy-1-(1-methyl-1H-indol-3-yl)methanimine]", "values": [{"measurement": "melting point", "result": "112 to 115", "unit": "°C"}, {"measurement": "Percentage inhibition (± SEM)", "setting": "[1]; at 5.00 μg/mL", "result": "24.57 ± 1.22", "unit": "%"}, {"measurement": "Percentage inhibition (± SEM)", "setting": "[1]; at 10.00 μg/mL", "result": "28.15 ± 0.81", "unit": "%"}, {"measurement": "Percentage inhibition (± SEM)", "setting": "[1]; at 15.00 μg/mL", "result": "29.91 ± 0.90", "unit": "%"}, {"measurement": "Percentage inhibition (± SEM)", "setting": "[1]; at 20.00 μg/mL", "result": "40.38 ± 0.24", "unit": "%"}, {"measurement": "Percentage inhibition (± SEM)", "setting": "[1]; at 25.00 μg/mL", "result": "55.76 ± 0.60", "unit": "%"}, {"measurement": "Percentage inhibition (± SEM)", "setting": "[1]; at 30.00 μg/mL", "result": "73.07 ± 0.35", "unit": "%"}, {"measurement": "Maximum Percentage of Inhibition", "setting": "[1]", "result": 77.05, "unit": "%"}, {"measurement": "IC50", "setting": "[1]", "result": "140 ± 4.5", "unit": "µM"}]}
{"smiles": "Cn1cc(/C=N/O)c2ccccc21", "note": "[Compound 7, (E)-N-hydroxy-1-(1-methyl-1H-indol-3-yl)methanimine]", "values": [{"measurement": "melting point", "result": "126 to 129", "unit": "°C"}, {"measurement": "Percentage inhibition (± SEM)", "setting": "[1]; at 5.00 μg/mL", "result": "22.74 ± 0.93", "unit": "%"}, {"measurement": "Percentage inhibition (± SEM)", "setting": "[1]; at 10.00 μg/mL", "result": "31.87 ± 0.59", "unit": "%"}, {"measurement": "Percentage inhibition (± SEM)", "setting": "[1]; at 15.00 μg/mL", "result": "38.14 ± 1.25", "unit": "%"}, {"measurement": "Percentage inhibition (± SEM)", "setting": "[1]; at 20.00 μg/mL", "result": "44.38 ± 0.35", "unit": "%"}, {"measurement": "Percentage inhibition (± SEM)", "setting": "[1]; at 25.00 μg/mL", "result": "48.92 ± 0.67", "unit": "%"}, {"measurement": "Percentage inhibition (± SEM)", "setting": "[1]; at 30.00 μg/mL", "result": "53.01 ± 0.85", "unit": "%"}, {"measurement": "Maximum Percentage of Inhibition", "setting": "[1]", "result": 57.17, "unit": "%"}, {"measurement": "IC50", "setting": "[1]", "result": "153 ± 1.6", "unit": "µM"}]}
{"smiles": "O/N=C\\c1cn(Cc2ccccc2)c2ccccc12", "note": "[Compound 8, (Z)-1-(1-benzyl-1H-indol-3-yl)-N-hydroxymethanimine]", "values": [{"measurement": "melting point", "result": "132 to 134", "unit": "°C"}, {"measurement": "Percentage inhibition (± SEM)", "setting": "[1]; at 5.00 μg/mL", "result": "36.36 ± 0.79", "unit": "%"}, {"measurement": "Percentage inhibition (± SEM)", "setting": "[1]; at 10.00 μg/mL", "result": "44.39 ± 0.70", "unit": "%"}, {"measurement": "Percentage inhibition (± SEM)", "setting": "[1]; at 15.00 μg/mL", "result": "58.52 ± 0.58", "unit": "%"}, {"measurement": "Percentage inhibition (± SEM)", "setting": "[1]; at 20.00 μg/mL", "result": "67.99 ± 1.01", "unit": "%"}, {"measurement": "Percentage inhibition (± SEM)", "setting": "[1]; at 25.00 μg/mL", "result": "76.49 ± 1.24", "unit": "%"}, {"measurement": "Percentage inhibition (± SEM)", "setting": "[1]; at 30.00 μg/mL", "result": "79.64 ± 0.88", "unit": "%"}, {"measurement": "Maximum Percentage of Inhibition", "setting": "[1]", "result": 83.78, "unit": "%"}, {"measurement": "IC50", "setting": "[1]", "result": "51.6 ± 3.5", "unit": "µM"}]}
{"smiles": "O/N=C/c1cn(Cc2ccccc2)c2ccccc12", "note": "[Compound 9, (E)-1-(1-benzyl-1H-indol-3-yl)-N-hydroxymethanimine]", "values": [{"measurement": "melting point", "result": "140 to 143", "unit": "°C"}, {"measurement": "Percentage inhibition (± SEM)", "setting": "[1]; at 5.00 μg/mL", "result": "33.06 ± 1.23", "unit": "%"}, {"measurement": "Percentage inhibition (± SEM)", "setting": "[1]; at 15.00 μg/mL", "result": "72.38 ± 0.77", "unit": "%"}, {"measurement": "Percentage inhibition (± SEM)", "setting": "[1]; at 20.00 μg/mL", "result": "77.61 ± 1.55", "unit": "%"}, {"measurement": "Percentage inhibition (± SEM)", "setting": "[1]; at 25.00 μg/mL", "result": "83.21 ± 0.82", "unit": "%"}, {"measurement": "Percentage inhibition (± SEM)", "setting": "[1]; at 30.00 μg/mL", "result": "84.89 ± 0.47", "unit": "%"}, {"measurement": "Maximum Percentage of Inhibition", "setting": "[1]", "result": 86.09, "unit": "%"}, {"measurement": "IC50", "setting": "[1]", "result": "34.5 ± 0.8", "unit": "µM"}]}
{"smiles": "NC(N)=S", "note": "[Thiourea, thiourea, reference compound]", "values": [{"measurement": "Percentage inhibition (± SEM)", "setting": "[1]; at 5.00 μg/mL", "result": "11.24 ± 0.28", "unit": "%"}, {"measurement": "Percentage inhibition (± SEM)", "setting": "[1]; at 10.00 μg/mL", "result": "22.61 ± 0.49", "unit": "%"}, {"measurement": "Percentage inhibition (± SEM)", "setting": "[1]; at 15.00 μg/mL", "result": "38.41 ± 0.63", "unit": "%"}, {"measurement": "Percentage inhibition (± SEM)", "setting": "[1]; at 20.00 μg/mL", "result": "61.54 ± 0.53", "unit": "%"}, {"measurement": "Percentage inhibition (± SEM)", "setting": "[1]; at 25.00 μg/mL", "result": "74.36 ± 0.50", "unit": "%"}, {"measurement": "Percentage inhibition (± SEM)", "setting": "[1]; at 30.00 μg/mL", "result": "81.49 ± 0.67", "unit": "%"}, {"measurement": "Maximum Percentage of Inhibition", "setting": "[1]", "result": 85.14, "unit": "%"}, {"measurement": "IC50", "setting": "[1]", "result": "239 ± 4.8", "unit": "µM"}]}
